# According to patent publication US4533553A, “Polycyclic ether antibiotic” (priority 1983, dated 1985):
# How the values were obtained:
# [1] = system: Enterobacteriacese aerogenes; experiment: in vitro MIC test; format: cell-based; conditions: 24 h
# Description: (§1) In Table I, below, the results of in vitro MIC tests are summarized. For this test each organism is inoculated in a series of test tubes containing nutrient medium and varying concentrations of Compound 53,607 to determine the minimal concentration of the antibiotic in mcg/ml which inhibits the growth of the organism over a period of 24 hours (MIC).
# Escherischia coli = experiment: in vitro MIC test; format: cell-based; conditions: 24 h
# Description: as §1
# Klebsiella pneumoniae = experiment: in vitro MIC test; format: cell-based; conditions: 24 h
# Description: as §1
# Pseudomonas aeruginosa = experiment: in vitro MIC test; format: cell-based; conditions: 24 h
# Description: as §1
# Serratia marcescens = experiment: in vitro MIC test; format: cell-based; conditions: 24 h
# Description: as §1
# Eimeria acervulina = experiment: efficacy against coccidial infections in chickens; format: in vivo; conditions: for Weight Gain / Average degree of Infection: five days; for Average degree of Infection: lesion score 0 to 3; for Ratio: lesion score treated / infected control
# Description: (§2) Efficacy data for Antibiotic Compound 53,607 and its salts against coccidial infections in chickens was obtained in the following fashion. Groups of 3-5 ten-day old SPF white leghorn cockerel chicks were fed a mash diet containing Antibiotic Compound 53,607 or its sodium and/or potassium salt uniformly dispersed therein. After being on this ration for 24 hours each chick was inoculated per os with oocysts of the particular species of Eimeria being tested. Other groups of 3-5 ten-day old chicks were fed a similar mash diet free of Antibiotic Compound 53,607 or its salts. They were also infected after 24 hours and served as infected controls. Yet other groups of 3-5 ten-day old chicks were fed the mash diet free of Antibiotic Compound 53,607 and were not infected with coccidia. These served as normal controls. The results of treatment were evaluated after five days in the case of E. acervulina, and six days for all other challenges.
# (§3) ^1 The criteria used to measure anticoccidial activity consisted of
# (§4) lesion scores of 0 to 4 for E. tenella after J. E. Lynch "A New Method fo
# (§5) the Primary Evaluation of Anticoccidial Activity." , Am. J. Vet. Res.
# (§6) 22:324-326 (1961); and 0 to 3 for the other species based on modification
# (§7) of the scoring system devised by J. Johnson and W. H. Reid, "Anticoccidia
# (§8) drugs. Lesion Scoring Techniques in Battery and Floor Pen Experiments in
# (§9) Chicks.", Exp. Parasit. 28: 30-36(1970). A constant ratio was established
# (§10) by dividing the lesion score of each treated group by the lesion score of […]
# Eimeria brunetti = experiment: efficacy against coccidial infections in chickens; format: in vivo; conditions: for Average degree of Infection: lesion score 0 to 3; for Average degree of Infection / Weight Gain: six days; for Ratio: lesion score treated / infected control
# Description: as §2, §3, §4, §5, §6, §7, §8, §9, §10
# Eimeria maxima = experiment: efficacy against coccidial infections in chickens; format: in vivo; conditions: for Average degree of Infection: lesion score 0 to 3; for Average degree of Infection / Weight Gain: six days; for Ratio: lesion score treated / infected control
# Description: as §2, §3, §4, §5, §6, §7, §8, §9, §10
# Eimeria tenella = experiment: efficacy against coccidial infections in chickens; format: in vivo; conditions: for Average degree of Infection: lesion score 0 to 4
# Description: as §2, §3, §4, §5, §6, §7, §8, §9, §10
# rumen fluid = experiment: in vitro rumen technique, propionic acid production; design: species or system cow; conditions: for increase in propionic acid: comparison with Salinomycin
# Description: The value of animal feeds generally has been determined directly by feeding the animal. British Patent Specification No. 1,197,826 details an in vitro rumen technique whereby the changes occurring in feeds brought about by microorganisms are measured more readily and with great accuracy in the evaluation of animal feeds. This technique involves the use of an apparatus in which the digestive processes of the animals are conducted and studied in vitro. The animal feeds, rumen inoculum and various growth promotants are introduced into and withdrawn from a laboratory unit under carefully controlled conditions and the changes taken place are studied critically and progressively during the consumption of the feed by the microorganisms. […] The change in propionic acid content is expressed as percent of the propionic acid content found in the control rumen fluid. Long term in vivo feeding studies are used to show a reliable correlation between propionic acid increase in the rumen fluid and improved animal performance.
# Rumen fluid is collected from a fistulated cow which is fed on a commercial fattening ration plus hay. The rumen fluid is immediately filtered through cheese cloth, and 10 ml added to a 50 ml conical flask containing 400 mg. of standard substrate (68% corn starch+17% cellulose+15% extracted soybean meal), 10 ml. of a pH 6.8 buffer and the test compound. The flasks are gassed with oxygen free nitrogen for about two minutes, and incubated in a shaking water bath at 39° C. for about 16 hours. All tests are conducted in triplicate.
# After incubation, 5 ml. of the sample is mixed with 1 ml. of 25% metaphosphoric acid. After 10 minutes 0.25 ml. of formic acid is added and the mixture centrifuged at 1,500 r.p.m. for 10 minutes. Samples are then analyzed by gas-liquid chromatograhy by the method of D. W. Kellog, J. Dairy Science, 52, 1690 (1969). Peak heights for acetic, propionic and butyric acids are determined for samples from untreated and treated incubation flasks.
# solubility = format: physicochemical
# [2] = system: Gram-positive microorganisms; experiment: inhibitory action against growth of Gram-positive microorganisms; format: cell-based; conditions: in vitro
# Description: as §1
# [3] = 25 ppm in diet, value in parentheses (not explained)
# [4] = 50 ppm in diet, value in parentheses (not explained)
# [5] = 100 ppm in diet, value in parentheses (not explained)
smiles,measurement,setting,value
"CC(=CC(C)C1OC2(CCC(C)(C3CCC(C)C4(OC(C5OC(O)(CO)C(C)CC5C)CC4C)O3)O2)CC(O)C1C)C(=O)C(C)CC(C)C(=O)O (stereo not drawn) [Antibiotic Compound 53,607]",MIC,[1],> 50 µg/mL
same,MIC,Escherischia coli,> 50 µg/mL
same,MIC,Klebsiella pneumoniae,> 50 µg/mL
same,MIC,Pseudomonas aeruginosa,> 50 µg/mL
same,MIC,Serratia marcescens,> 50 µg/mL
same,Weight Gain,Eimeria acervulina; 25 ppm in diet,7%
same,Average degree of Infection,Eimeria acervulina; 25 ppm in diet,2.0
same,Ratio,Eimeria acervulina; 25 ppm in diet,1.00
same,Weight Gain,Eimeria acervulina; 50 ppm in diet,18%
same,Average degree of Infection,Eimeria acervulina; 50 ppm in diet,2.0
same,Ratio,Eimeria acervulina; 50 ppm in diet,1.00
same,Weight Gain,Eimeria acervulina; 100 ppm in diet,22%
same,Average degree of Infection,Eimeria acervulina; 100 ppm in diet,1.2
same,Ratio,Eimeria acervulina; 100 ppm in diet,0.60
same,Weight Gain,Eimeria acervulina; 200 ppm in diet,2%
same,Average degree of Infection,Eimeria acervulina; 200 ppm in diet,1.5
same,Ratio,Eimeria acervulina; 200 ppm in diet,0.75
same,controlling infections,"Eimeria acervulina; chickens, diet, 50 to 200 ppm",effective in controlling infections
same,Average degree of Infection,Eimeria brunetti; 25 ppm in diet,2.6
same,Ratio,Eimeria brunetti; 25 ppm in diet,1.44
same,Weight Gain,Eimeria brunetti; 25 ppm in diet,47%
same,Average degree of Infection,Eimeria brunetti; 50 ppm in diet,1.0
same,Ratio,Eimeria brunetti; 50 ppm in diet,0.55
same,Weight Gain,Eimeria brunetti; 50 ppm in diet,49%
same,Average degree of Infection,Eimeria brunetti; 100 ppm in diet,0.4
same,Ratio,Eimeria brunetti; 100 ppm in diet,0.22
same,Weight Gain,Eimeria brunetti; 100 ppm in diet,47%
same,controlling infections,"Eimeria brunetti; chickens, diet, 50 to 200 ppm",effective in controlling infections
same,Average degree of Infection,Eimeria maxima; 25 ppm in diet,1.4
same,Ratio,Eimeria maxima; 25 ppm in diet,0.88
same,Weight Gain,Eimeria maxima; 25 ppm in diet,51%
same,Average degree of Infection,Eimeria maxima; 50 ppm in diet,1.0
same,Ratio,Eimeria maxima; 50 ppm in diet,0.63
same,Weight Gain,Eimeria maxima; 50 ppm in diet,70%
same,Average degree of Infection,Eimeria maxima; 100 ppm in diet,0.8
same,Ratio,Eimeria maxima; 100 ppm in diet,0.50
same,Weight Gain,Eimeria maxima; 100 ppm in diet,37%
same,Average degree of Infection,Eimeria maxima; 200 ppm in diet,1.5
same,Ratio,Eimeria maxima; 200 ppm in diet,0.94
same,Weight Gain,Eimeria maxima; 200 ppm in diet,10%
same,controlling infections,"Eimeria maxima; chickens, diet, 50 to 200 ppm",effective in controlling infections
same,Average degree of Infection,"Eimeria tenella; 25 ppm in diet, six days",3.0
same,Ratio,"Eimeria tenella; 25 ppm in diet, lesion score treated / infected control",0.95
same,Weight Gain,"Eimeria tenella; 25 ppm in diet, six days",47%
same,Ratio,Eimeria tenella; [3],0.49
same,Weight Gain,Eimeria tenella; [3],102%
same,Average degree of Infection,Eimeria tenella; [3],1.7
same,Average degree of Infection,"Eimeria tenella; 50 ppm in diet, six days",2.7
same,Ratio,"Eimeria tenella; 50 ppm in diet, lesion score treated / infected control",0.86
same,Weight Gain,"Eimeria tenella; 50 ppm in diet, six days",22%
same,Ratio,Eimeria tenella; [4],0.09
same,Weight Gain,Eimeria tenella; [4],97%
same,Average degree of Infection,Eimeria tenella; [4],0.3
same,Average degree of Infection,"Eimeria tenella; 100 ppm in diet, six days",1.0
same,Ratio,"Eimeria tenella; 100 ppm in diet, lesion score treated / infected control",0.32
same,Weight Gain,"Eimeria tenella; 100 ppm in diet, six days",57%
same,Ratio,Eimeria tenella; [5],0.37
same,Weight Gain,Eimeria tenella; [5],60%
same,Average degree of Infection,Eimeria tenella; [5],1.3
same,Average degree of Infection,"Eimeria tenella; 200 ppm in diet, six days",1.3
same,Ratio,"Eimeria tenella; 200 ppm in diet, lesion score treated / infected control",0.41
same,Weight Gain,"Eimeria tenella; 200 ppm in diet, six days",37%
same,controlling infections,"Eimeria tenella; chickens, diet, 50 to 200 ppm",effective in controlling infections
same,increase in propionic acid,rumen fluid; 5 μg./ml.,about 40%
same,increase in propionic acid,rumen fluid; 20 μg./ml.,about 43%
same,increase in the production of propionic acid over control,"rumen fluid; 20 micrograms per milliliter, first comparison (with Monensin)",about 57%
same,solubility in chloroform,solubility; chloroform,soluble
same,solubility in ethyl acetate,solubility; ethyl acetate,soluble
same,solubility in methanol,solubility; methanol,soluble
same,solubility in methylisobutyl ketone,solubility; methylisobutyl ketone,soluble
same,solubility in water,solubility; water,insoluble
same,inhibitory action against growth,[2],exhibits inhibitory action
